# Assay results as given in US20150024008A1, “Methods and Compositions Involving Induced Senescent Cells for Cancer Treatment” (THE UNIVERSITY OF CHICAGO, priority 2011, published 2015).
# Tests used:
# [1] = tested on: MCF7 Tet-On GFP-IBD human breast cancer cell line; test: GFP-53BP1 IRIF persistence, senescence and growth in MCF7 Tet-On GFP-IBD cells; type: cell-based; conditions: for persistence of GFP-53BP1 foci (IRIF) / accelerated senescence: combined with irradiation; for Senescence inducing condition 2 (compound concentration combined with IR) / Senescence inducing condition 1 (compound concentration combined with IR): MCF7 cell line
# Protocol: To examine the effect of glucose metabolism on IRIF persistence in living cells, we exploited our previously described IRIF reporter consisting of GFP fused to the 53BP1 IRIF binding domain, expressed under tetracycline-inducible control. MCF7^Tet-On GFP-IBD cells were seeded at 3×10^5 per Fluorodish (World Precision Instruments, Inc.) in high-glucose (4.5 g/L) DMEM (Invitrogen) media supplemented with 10% Tet system-approved fetal bovine serum (Clontech) and 1 μg/mL doxycycline (Sigma). Next day media was exchanged for either high-glucose (4.5 g/L) or low-glucose (1 g/L) DMEM with 10% FBS and 1 μg/mL doxycycline. […] Cells were fixed at 3 h and 24 h for IRIF imaging and at day 5 for SA-βGal staining. Images were captured on Zeiss Axiovert 200M and a Hammatsu Orca ER FireWire digital monochrome (IRIF) or Zeiss Axiocam color digital camera (SA-βGal staining) controlled by OpenLab software.
# To investigate what step of glycolysis is critical for improvement of DNA repair we used set of well established glycolysis inhibitors including glucose transporter Glut1 inhibitor, HXKi, GAPHi, PKi, LDHi. […] Given that elevated glycolysis predispose tumor cells for therapeutic resistance similar experiment has been performed on IR resistant PANC02 mouse pancreatic and U87 human glioma cell lines.
# [2] = tested on: Nu61 head and neck squamous carcinoma xenografts; test: SA-βGal in Nu61 tumor xenografts; type: in vivo, mouse
# Protocol: Head and neck squamous carcinomas cell line Nu61^Tet-On GFP-IBD with IRIF live imaging reporter have been developed. Female athymic nude mice underwent s.c. injection of 1×10^7 Nu61 Tet-OnGFP-IBD cells in 100 μL of PBS. Nine days later, mice received 25 mg/kg veliparib (ChemieTek) by oral gavage 48 hours before and 72 hours after a single dose of 6 Gy. […] Tumors were excised and frozen in liquid nitrogen for subsequent analysis. Frozen sections were analyzed for SA-βGal activity. The senescence-associated β-galactosidase (SA-βGal) assay was conducted as described before. Images were captured on a Zeiss Axiovert 200M and Zeiss Axiocam color digital camera controlled by OpenLab software with a ×20 objective.
# [3] = tested on: PANC02 mouse pancreatic cell line; test: GFP-53BP1 IRIF persistence in PANC02 Tet-On GFP-IBD cells; type: cell-based; conditions: 24 hours after 6 Gy
# Protocol: (§1) PANC02^Tet-On GFP-IBD and U87^Tet-On GFP-IBD cell lines have been developed. Cells were seeded at 3×10^5 per Fluorodish in media supplemented with 1 μg/mL doxycycline following pretreatment for 1 h with glycolysis inhibitors before 6 Gy irradiation at 48 h. Phloretin Glut1i—Glucose transporter 1 inhibitor 100 μM (Sigma), HXi—Hexokinase inhibitorII 50 μM (Calbiochem), PKi—Pyruvate kinase inhibitor oxalate 50 μM (Sigma), LDHi—Lactate dehydrogenase inhibitor, oxamate 1 mM (Sigma).
# [4] = tested on: U87 human glioma cell line; test: GFP-53BP1 IRIF persistence in U87 Tet-On GFP-IBD cells; type: cell-based; conditions: 24 hours after 6 Gy
# Protocol: as §1
# [5] = chemotherapy agent, no irradiation stated
compound,measurement,setting,value
"O=CC[C@@H](O)[C@H](O)[C@H](O)CO [2DG, 2-deoxy-D-glucose]",persistence of GFP-53BP1 foci (IRIF),[1],induced persistence of GFP-53BP1 foci
same,SA-βGal induction in tumor,[2]; irradiated tumor treated with 2DG and veliparib,Strongest induction of SA-βGal
same,SA-βGal positive cells in tumor,[2]; irradiation combined with 2DG,induced numerous cells stained positive for SA-βGal
Nc1nc2ccc(Cl)cc2c2nc(-c3ccco3)nn12 [CGS15943],Senescence inducing condition 2 (compound concentration combined with IR),[1]; compound + 5 Gy,0.05 μM + 5 Gy^
N[C@@H](C(=O)N[C@@H]1C(=O)N2C(C(=O)O)=C(Cl)CS[C@H]12)c1ccccc1 [Cefaclor],Senescence inducing condition 1 (compound concentration combined with IR),[1]; compound + 6 Gy,25 μM + 6 Gy
CC1=C(C(=O)O)N2C(=O)[C@@H](NC(=O)[C@H](N)c3ccccc3)[C@H]2SC1 [Cephalexin],Senescence inducing condition 2 (compound concentration combined with IR),[1]; compound + 6 Gy,10 μM + 6 Gy
N.N.[Cl][Pt][Cl] [Cisplatin],persistence of GFP-53BP1 foci,[1]; [5],induced persistence of GFP-53BP1 foci
same,senescence and growth,[1]; [5],accelerated senescence and growth suppression
CN(C)CCC=C1c2ccccc2COc2ccccc21 [Doxepin],Senescence inducing condition 2 (compound concentration combined with IR),[1]; compound + 5 Gy,2.5 μM + 5 Gy
"O=c1[nH]cc(F)c(=O)[nH]1 [Fluorouracil (5-FU), Fluorouracil]",accelerated senescence,[1],accelerates senescence
same,persistence of GFP-53BP1 foci (IRIF),[1],enhances IRIF persistence
CN1CCC(=C2c3ccccc3CC(=O)c3sccc32)CC1 [Ketotifen],Senescence inducing condition 2 (compound concentration combined with IR),[1]; compound + 5 Gy,5 μM + 5 Gy
COC(=O)C1=C(C)NC(C)=C(C(=O)OCC(C)C)C1c1ccccc1[N+](=O)[O-] (stereo not shown) [Nisoldipine],Senescence inducing condition 2 (compound concentration combined with IR),[1]; compound + 6 Gy,10 μM + 6 Gy
O=C(O)C[C@H](O)C[C@H](O)/C=C/c1c(C2CC2)nc2ccccc2c1-c1ccc(F)cc1 [Pitavastatin],Senescence inducing condition 1 (compound concentration combined with IR),[1]; compound + 6 Gy,10 μM + 6 Gy
O=c1c(O)c(-c2ccc(O)c(O)c2)oc2cc(O)cc(O)c12 [Quercetin],Senescence inducing condition 2 (compound concentration combined with IR),[1]; compound + 5 Gy,2.5 μM + 5 Gy
COc1ccc(C2CNC(=O)C2)cc1OC1CCCC1 (stereo not shown) [Rolipram],Senescence inducing condition 1 (compound concentration combined with IR),[1]; compound + 6 Gy,10 μM + 6 Gy
"O=C(CCCCCCC(=O)Nc1ccccc1)NO [SAHA, suberoylanilide hydroxamic acid]",persistence of GFP-53BP1 foci (IRIF),[1],enhance radiation induced persistence of GFP-53BP1 foci
CC/C(=C(\c1ccccc1)c1ccc(OCCN(C)C)cc1)c1ccccc1 [Tamoxifen],accelerated senescence,[1],promoted accelerated senescence
same,persistence of GFP-53BP1 foci (IRIF),[1],induced persistence of GFP-53BP1 foci after irradiation
CN(C/C=C/C#CC(C)(C)C)Cc1cccc2ccccc12 [Terbinafine],Senescence inducing condition 1 (compound concentration combined with IR),[1]; compound + 5 Gy,2.5 μM + 5 Gy
O=c1n(CCCN2CCN(c3cccc(Cl)c3)CC2)nc2ccccn12 [Trazodone],Senescence inducing condition 2 (compound concentration combined with IR),[1]; compound + 6 Gy,10 μM + 6 Gy
CCCCCCCCCCCCCCCc1cccc(O)c1C(=O)O [anacardic acid],persistence of GFP-53BP1 foci (IRIF),[1],enhance radiation induced persistence of GFP-53BP1 foci
c1cc(-c2cnn3cc(-c4ccc(OCCN5CCCCC5)cc4)cnc23)ccn1 [compound C],accelerated senescence,[1],promoted accelerated senescence
same,persistence of GFP-53BP1 foci (IRIF),[1],induced persistence of GFP-53BP1 foci after irradiation
"O=C(O)C(Cl)Cl [dichloroacetic acid (DCA), dichloroacetic acid]",accelerated senescence,[1],promoted accelerated senescence
same,persistence of GFP-53BP1 foci (IRIF),[1],induced persistence of GFP-53BP1 foci following irradiation
CN(C)C(=N)N=C(N)N [metformin],accelerated senescence,[1],promoted accelerated senescence
same,persistence of GFP-53BP1 foci (IRIF),[1],induced persistence of GFP-53BP1 foci after irradiation
O=C(CCc1ccc(O)cc1)c1c(O)cc(O)cc1O [phloretin],accelerated senescence,[1],promoted accelerated senescence
same,persistence of GFP-53BP1 foci (IRIF),[1],induced persistence of GFP-53BP1 foci following irradiation
same,IRIF persistence,[3],markedly increased IRIF persistence
same,IRIF persistence,[4],markedly increased IRIF persistence
oxalate [PKi],IRIF persistence,[3],markedly increased IRIF persistence
same,IRIF persistence,[4],markedly increased IRIF persistence
